Test results published in US6717008B2, “Derivatives of C2-substituted indan-1-ol compounds, methods for their preparation and use” (Aventis Pharma Deutschland GmbH, priority 2001, dated 2004).

Columns and labels:
female NMRI mice = assay: Anorectic action: cumulative evaporated milk consumption after 24 h feed removal; format: in vivo; conditions: dose 10 mg/kg, i.p. or po (route not specified), compared with control animals
Protocol: The anorectic action was tested on female NMRI mice. After removal of feed for 24 hours, the preparation to be tested was administered intraperitoneally (i.p.) or by gavage (po). The animals were housed singly and, with free access to drinking water, they were offered evaporated milk 30 minutes after administration of the preparation. The consumption of evaporated milk was determined and the general behavior of the animals was monitored every half an hour for 7 hours. The measured milk consumption was compared to that of vehicle-treated control animals.

## CC(=O)OC1c2ccc(Cl)cc2CC1S(C)(=O)=O (centres unmarked) [Example 1, 1-Acetoxy-5-chloro-2-methylsulfonylindane]
Female NMRI mice
  Reduction in cumulative milk consumption as % of the control: 81 % of the control
other
  melting point: 136 °C
